Source: article PMC11944476, “In Vitro Evaluation of Esters of Quinoxaline-1,4-di-N-oxide Derivatives as New Antitaeniasis Agents and Their Inhibitory Activity Against Triosephosphate Isomerase” (Pharmaceuticals, 2025)

Columns and labels:
[1] = target: T1, recombinant TsTIM (WT TsTIM) (Taenia solium, UniProt Q9GTX8); assay: enzyme inactivation assay, GAP to DHAP, alpha-GDH coupled NADH oxidation at […] nm; format: biochemical
T1 construct: N-terminal six-His tag from pRSET, expressed in E. coli BL21 Codon Plus (DE3)-RIL, IMAC-purified, tag removal not mentioned; TIM is a dimer

[2] = target: T1, recombinant TsTIM (WT TsTIM); assay: alpha-GDH coupled NADH oxidation at […] nm; format: biochemical; details: GAP to DHAP direction

T1 sequence (Q9GTX8 whole entry): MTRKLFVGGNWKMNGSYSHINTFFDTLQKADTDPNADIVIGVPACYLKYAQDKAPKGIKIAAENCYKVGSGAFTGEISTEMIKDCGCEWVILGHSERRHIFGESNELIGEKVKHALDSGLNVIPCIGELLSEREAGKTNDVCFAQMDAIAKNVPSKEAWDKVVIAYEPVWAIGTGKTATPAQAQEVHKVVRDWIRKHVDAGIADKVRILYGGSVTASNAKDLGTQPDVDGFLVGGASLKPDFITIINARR

Row | Compound | inhibition at 1000 µM [1] [%] | alpha-GDH coupled NADH oxidation at 340 nm [2]
1 | CCOC(=O)c1ccc2c(c1)[n+]([O-])c(C(=O)c1cccs1)c(C(F)(F)F)[n+]2[O-] [TS-12] | < 40 | –
2 | O=C[C@H](O)COP(=O)(O)O [glyceraldehyde 3-phosphate] | – | measuring the conversion of glyceraldehyde 3-phosphate (GAP) to dihydroxyacetone phosphate (DHAP)
